Where two headings read alike, the source gives them in different places.
How the values were obtained:
[1] = system: dendritic cells lacking TLR-2 and -4; test: Activation of bone marrow-derived dendritic cells from TLR-2/-4 double knock out mice; format: cell-based
Protocol: FIG. 11. A. The immunostimulatory effect of PZA is independent of TLR engagement. Mean fluorescence values for the expression of CD80, CD86, MHC Class I and MHC Class II and B. IL-12, IL-10 and iNOS expression determined by flow cytometry in bone marrow-derived dendritic cells from TLR-2/-4 double knock out mice, infected or not with L. major, and treated with 10 and 100 μM PZA. Uninfected cells were treated with 10 U IFN-γ/100 ng/ml LPS as a positive control of activation. Unstimulated, untreated cells are also shown. Data are expressed as mean±standard deviation of n=3 determinations. *: Statistically significant P≦0.03; **: Statistically significant P≦0.005; ***: Statistically significant, P≦0.0001 when compared to the group infected with L. major and untreated.
In this experiment, we treated the dendritic cells as described above, in the presence or absence of L. major infection. Again as a positive control, cells were primed with IFN-γ and LPS. […] In the same way, the expression of IL-12, IL-10 and iNOS was increased in treated cells, irrespective of infection (FIG. 11B).

uninfected J774 cells = format: cell-based; conditions: 48 h; for percentage of survival compared to untreated control: mouse
Protocol: The potential cytotoxicity of PZA toward the mammalian cell line was determined by co-incubation of PZA with uninfected J774 cells for 48 h (10^4 cells/well) in 96-well culture plates. […] At 200 μg/ml, the compound started to show signs of toxicity, resulting in mortality of 25% of the cell monolayer. […] The control drug amphotericin B caused 5% mortality of the cell monolayer at the concentration tested (1 μg/ml).
J774 cell viability following incubation with PZA was also determined. Cells were seeded onto 8-well Labtek chambers as above and incubated with different concentrations of PZA (up to 1 mg/ml) for 48 h, stained with Diff-Quick and counted under light microscope. The percentage of viable cells was determined after quantifying the number of cells present per field (in 25 fields, ca. 500 cells). Percentage of survival and MIC50 were calculated as above.

NC(=O)c1cnccn1 [PZA, pyrazinamide]
expression of activation markers and MHC Class molecules ([1]; 10 and 100 μM PZA, dose-dependent, TLR-2/-4 double knock out dendritic cells): increased expression of activation markers and MHC Class molecules
expression of IL-12, IL-10 and iNOS ([1]; PZA-treated cells, irrespective of infection): increased
mortality of the cell monolayer (uninfected J774 cells; PZA 200 μg/ml): 25%
mortality of the macrophages (uninfected J774 cells; PZA 1 mg/ml): 100%
percentage of survival compared to untreated control (uninfected J774 cells; 1 μg/ml): 100 ± 11%
percentage of survival compared to untreated control (uninfected J774 cells; 12.5 μg/ml): 100 ± 10%
percentage of survival compared to untreated control (uninfected J774 cells; 50 μg/ml): 100 ± 12%
percentage of survival compared to untreated control (uninfected J774 cells; 100 μg/ml): 100 ± 15%
percentage of survival compared to untreated control (uninfected J774 cells; 200 μg/ml): 85 ± 12%
percentage of survival compared to untreated control (uninfected J774 cells; 1000 μg/ml): 0%

Source: patent US20120157396A1, “PYRAZINAMIDE FOR IMMUNOSTIMULATION AND THE TREATMENT OF LEISHMANIASES” (priority 2009, published 2012)
